Test results taken from patent publication US20230295166A1, “ATR INHIBITORS AND USES THEREOF” (ANTENGENE DISCOVERY LIMITED, priority 2020, published 2023).

Experiments:
LoVo (CCL-229) cells = test: Tumor cell anti-proliferation assay (CTG assay); type: cell-based; conditions: LoVo human colorectal cancer cells, 96 h, CellTiter-Glo
Outline: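 Cells seeded and held 20–24 h, then exposed to 3-fold serial dilutions of compound (final DMSO 0.5%) for 96 h at 37 °C, 5% CO2. Viability measured by CellTiter-Glo luminescence; IC50 and GI50 from a 4-parameter logistic fit.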

ATR kinase = ATR kinase (Homo sapiens (Human), UniProt Q13535); test: ATR inhibition assay (mobility shift assay, phosphorylation of FAM-RAD17); type: biochemical; conditions: ATR kinase (Eurofins), substrate FAM-RAD17, mobility shift
Description: Assay 1: ATR Inhibition Assay
Detection of ATR kinase activity utilized the Mobility shift assay to measure the phosphorylation of the substrate protein FAM-RAD17 (GL, Cat. No. 514318, Lot. No. P19042-MJ524315). The assay was developed and conducted at Chempartner. All the test compounds were dissolved in 100% DMSO at concentration of 20 mM, then prepare compounds and conducted the assay as follows: • 1) Transfer 80 μl 20 mM compound to 40 μl of 100% DMSO in a 96-well plate. • 2) Serially dilute the compound by transferring 20 μl to 60 μl of 100% DMSO in the next well and so forth for a total of 10 concentrations. • 3) Add 100 μl of 100% DMSO to two empty wells for no compound control and no enzyme control in the same 96-well plate. Mark the plate as source plate. • 4) Transfer 40 μl of compound from source plate to a new 384-well plate as the intermediate plate. • 5) Transfer 60 nl compounds to assay plate by Echo. • 6) Add ATR kinase (Eurofins, Cat. No. 14-953, Lot. No. D14 JP007N) into Kinase base buffer (50 mM HEPES, pH 7.5; 0.0015% Brij-35; 0.01% Triton) to prepare 2× enzyme solution, then add 10 μl of 2× enzyme solution to each well of the 384-well assay plate, incubate at room temperature for 10 min. • 7) Add FAM-RAD17 and ATP (Sigma, Cat. No. A7699-1G, CAS No. 987-65-5) in the kinase base buffer to prepare 2×peptide solution, then add 10 μl to the assay plate. • 8) Incubate at 28° C. for specified period of time. Add 40 μl of stop buffer (100 mM HEPES, pH 7.5; 0.015% Brij-35; 0.2% Coating Reagent #3; 50 mM EDTA) to stop reaction. • 9) Collect data on Caliper. Convert conversion values to inhibition values.
Percent inhibition=(max−conversion)/(max−min)*100 wherein “max” stands for DMSO control; “min” stands for low control.
Fit the data in XLFit excel add-in version 5.4.0.8 to obtain IC50 values. Equation used is:
Y=Bottom+(Top−Bottom)/(1+(IC50/X)^HillSlope) wherein X means concentration in a format not transformed to logarithms.

Sequence of ATR kinase (Q13535 whole entry): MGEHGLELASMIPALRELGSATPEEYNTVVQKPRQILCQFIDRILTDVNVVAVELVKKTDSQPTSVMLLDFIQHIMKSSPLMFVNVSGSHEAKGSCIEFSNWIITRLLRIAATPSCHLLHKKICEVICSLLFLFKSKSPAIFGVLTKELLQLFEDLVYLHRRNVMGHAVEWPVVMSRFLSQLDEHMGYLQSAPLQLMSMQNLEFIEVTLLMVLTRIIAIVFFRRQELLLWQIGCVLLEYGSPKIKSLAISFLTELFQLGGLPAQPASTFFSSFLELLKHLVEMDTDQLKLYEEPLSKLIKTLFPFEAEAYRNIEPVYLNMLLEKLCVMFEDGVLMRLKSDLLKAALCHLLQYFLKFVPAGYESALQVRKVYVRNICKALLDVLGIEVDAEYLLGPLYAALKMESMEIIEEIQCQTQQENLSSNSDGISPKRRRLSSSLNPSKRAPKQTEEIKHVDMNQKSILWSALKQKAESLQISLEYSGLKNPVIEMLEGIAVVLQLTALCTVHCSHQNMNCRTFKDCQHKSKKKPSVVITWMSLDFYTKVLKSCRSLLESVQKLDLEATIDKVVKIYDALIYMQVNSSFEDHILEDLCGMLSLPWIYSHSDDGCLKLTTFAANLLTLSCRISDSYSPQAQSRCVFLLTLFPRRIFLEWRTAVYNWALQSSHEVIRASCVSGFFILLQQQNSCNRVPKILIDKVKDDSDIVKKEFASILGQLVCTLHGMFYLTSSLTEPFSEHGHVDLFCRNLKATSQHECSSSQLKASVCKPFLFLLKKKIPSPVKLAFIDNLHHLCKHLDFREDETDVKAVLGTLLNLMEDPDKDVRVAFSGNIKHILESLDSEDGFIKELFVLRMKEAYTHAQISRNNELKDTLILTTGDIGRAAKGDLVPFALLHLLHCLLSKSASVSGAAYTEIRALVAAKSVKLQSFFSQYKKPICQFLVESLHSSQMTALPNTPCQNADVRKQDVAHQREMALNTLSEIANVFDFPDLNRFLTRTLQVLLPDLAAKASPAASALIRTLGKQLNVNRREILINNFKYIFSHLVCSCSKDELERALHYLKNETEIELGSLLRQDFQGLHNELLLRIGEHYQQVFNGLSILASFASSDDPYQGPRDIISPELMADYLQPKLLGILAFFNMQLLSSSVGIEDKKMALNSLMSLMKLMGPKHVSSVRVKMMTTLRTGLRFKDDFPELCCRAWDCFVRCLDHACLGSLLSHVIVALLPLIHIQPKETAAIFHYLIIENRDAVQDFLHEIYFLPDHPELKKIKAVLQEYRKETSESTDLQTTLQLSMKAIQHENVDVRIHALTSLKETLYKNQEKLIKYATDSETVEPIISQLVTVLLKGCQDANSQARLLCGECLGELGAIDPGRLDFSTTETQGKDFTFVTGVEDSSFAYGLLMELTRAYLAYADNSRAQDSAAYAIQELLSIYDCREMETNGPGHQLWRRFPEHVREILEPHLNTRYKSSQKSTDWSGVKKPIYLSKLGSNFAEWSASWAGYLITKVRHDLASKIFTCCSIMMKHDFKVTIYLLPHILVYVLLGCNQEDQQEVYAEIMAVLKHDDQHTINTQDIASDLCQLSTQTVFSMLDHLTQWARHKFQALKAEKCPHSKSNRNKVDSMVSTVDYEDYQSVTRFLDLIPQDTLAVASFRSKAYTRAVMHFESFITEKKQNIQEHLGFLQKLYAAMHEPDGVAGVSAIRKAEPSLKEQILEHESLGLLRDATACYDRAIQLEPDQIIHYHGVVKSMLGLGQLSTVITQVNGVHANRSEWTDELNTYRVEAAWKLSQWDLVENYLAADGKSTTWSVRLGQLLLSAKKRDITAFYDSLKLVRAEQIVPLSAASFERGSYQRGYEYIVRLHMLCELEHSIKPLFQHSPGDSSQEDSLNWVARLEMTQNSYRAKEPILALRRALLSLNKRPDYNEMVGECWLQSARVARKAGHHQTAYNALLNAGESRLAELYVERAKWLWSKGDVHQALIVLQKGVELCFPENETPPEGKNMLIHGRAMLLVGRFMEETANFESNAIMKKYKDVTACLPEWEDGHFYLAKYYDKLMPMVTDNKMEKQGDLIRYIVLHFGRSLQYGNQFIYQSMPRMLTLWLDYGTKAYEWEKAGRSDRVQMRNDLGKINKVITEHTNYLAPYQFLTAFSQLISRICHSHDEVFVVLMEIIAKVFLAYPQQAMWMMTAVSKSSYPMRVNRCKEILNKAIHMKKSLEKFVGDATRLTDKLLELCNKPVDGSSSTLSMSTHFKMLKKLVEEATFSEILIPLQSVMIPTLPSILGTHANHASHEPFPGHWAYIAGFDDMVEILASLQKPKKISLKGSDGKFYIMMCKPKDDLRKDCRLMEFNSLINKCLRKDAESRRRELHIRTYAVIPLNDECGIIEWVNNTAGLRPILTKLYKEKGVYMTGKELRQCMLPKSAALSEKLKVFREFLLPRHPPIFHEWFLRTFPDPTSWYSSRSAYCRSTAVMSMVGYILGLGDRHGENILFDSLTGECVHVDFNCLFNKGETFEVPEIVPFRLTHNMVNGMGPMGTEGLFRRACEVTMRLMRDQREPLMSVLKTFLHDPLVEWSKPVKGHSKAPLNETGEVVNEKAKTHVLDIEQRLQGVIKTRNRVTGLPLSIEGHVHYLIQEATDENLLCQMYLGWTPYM
Sequence of ATR kinase (Q8WXE1 whole entry partner): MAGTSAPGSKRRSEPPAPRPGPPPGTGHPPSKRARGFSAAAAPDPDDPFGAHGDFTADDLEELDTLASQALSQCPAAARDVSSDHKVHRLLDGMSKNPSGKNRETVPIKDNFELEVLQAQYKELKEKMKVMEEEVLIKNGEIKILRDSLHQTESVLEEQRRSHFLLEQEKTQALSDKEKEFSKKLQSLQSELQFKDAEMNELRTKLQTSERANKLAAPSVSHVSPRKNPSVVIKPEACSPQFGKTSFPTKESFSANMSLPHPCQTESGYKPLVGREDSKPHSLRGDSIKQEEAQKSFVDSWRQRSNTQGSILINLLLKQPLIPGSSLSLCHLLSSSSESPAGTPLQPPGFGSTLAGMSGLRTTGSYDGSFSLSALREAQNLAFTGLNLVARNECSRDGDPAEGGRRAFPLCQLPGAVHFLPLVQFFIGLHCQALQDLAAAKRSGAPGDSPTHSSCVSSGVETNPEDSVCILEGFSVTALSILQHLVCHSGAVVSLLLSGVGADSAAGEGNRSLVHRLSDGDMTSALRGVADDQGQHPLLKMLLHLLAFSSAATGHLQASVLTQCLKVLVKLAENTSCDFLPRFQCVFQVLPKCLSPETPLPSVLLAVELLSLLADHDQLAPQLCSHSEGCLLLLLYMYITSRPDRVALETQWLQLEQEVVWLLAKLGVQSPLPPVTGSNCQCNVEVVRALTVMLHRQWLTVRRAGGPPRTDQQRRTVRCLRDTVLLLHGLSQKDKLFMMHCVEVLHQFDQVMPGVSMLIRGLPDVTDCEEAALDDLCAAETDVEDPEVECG

| Compound | IC50 (LoVo (CCL-229) cells) | IC50 (ATR kinase) |
| --- | --- | --- |
| Cc1cc(-c2ncc3c(C4(S(C)(=O)=O)CC4)cc(N4CCOC[C@H]4C)nn23)[nH]n1 [Example 31, (R)-3-methyl-4-(7-(3-methyl-1H-pyrazol-5-yl)-4-(1-(methylsulfonyl)cyclopropyl)imidazo[1,5-b]pyridazin-2-yl)morpholine] | 84 nM | < 100 nM |
| Cc1cc(-c2nsc3c(C4(C#N)CCOCC4)cc(N4CCOC[C@H]4C)nc23)[nH]n1 [Example 84, (R)-4-(3-(3-methyl-1H-pyrazol-5-yl)-5-(3-methylmorpholino)isothiazolo[4,5-b]pyridin-7-yl)tetrahydro-2H-pyran-4-carbonitrile] | 9 nM | < 100 nM |
| Cc1cc(-c2nsc3c(-c4c(C)nnn4C)cc(N4CCOC[C@H]4C)nc23)[nH]n1 [Example 48, (R)-4-(7-(1,4-dimethyl-1H-1,2,3-triazol-5-yl)-3-(3-methyl-1H-pyrazol-5-yl)isothiazolo[4,5-b]pyridin-5-yl)-3-methylmorpholine] | 33.3 nM | < 100 nM |
| Cc1cc(-c2ncc3c(C(C)(C)C#N)cc(N4CCOC[C@H]4C)nn23)[nH]n1 [Example 64, (R)-2-methyl-2-(7-(3-methyl-1H-pyrazol-5-yl)-2-(3-methylmorpholino)imidazo[1,5-b]pyridazin-4-yl)propanenitrile] | 15.1 nM | < 100 nM |
| C[C@@H]1COCCN1c1cc(S(=O)(=O)C2CC2)c2snc(-c3ccn[nH]3)c2n1 [Example 75, (R)-4-(7-(cyclopropylsulfonyl)-3-(1H-pyrazol-5-yl)isothiazolo[4,5-b]pyridin-5-yl)-3-methylmorpholine] | 15.3 nM | < 100 nM |
| C[C@@H]1COCCN1c1cc(N2CCCCS2(=O)=O)c2snc(-c3ccn[nH]3)c2n1 [Example 76, (R)-2-(5-(3-methylmorpholino)-3-(1H-pyrazol-5-yl)isothiazolo[4,5-b]pyridin-7-yl)-1,2-thiazinane 1,1-dioxide] | 24.3 nM | < 100 nM |
| C[C@@H]1COCCN1c1cc(C2(C#N)CCOCC2)c2snc(-c3ccn[nH]3)c2n1 [Example 83, (R)-4-(5-(3-methylmorpholino)-3-(1H-pyrazol-5-yl)isothiazolo[4,5-b]pyridin-7-yl)tetrahydro-2H-pyran-4-carbonitrile] | 14 nM | < 100 nM |
| C[C@@H]1COCCN1c1cc(-c2ccnn2C)c2snc(-c3ccn[nH]3)c2n1 [Example 29, (3R)-3-methyl-4-[7-(1-methyl-1H-pyrazol-5-yl)-3-(1H-pyrazol-5-yl)-[1,2]thiazolo[4,5-b]pyridin-5-yl]morpholine] | 14 nM | < 100 nM |
| Cc1cc(-c2nsc3c(C4(C#N)CCCCC4)cc(N4CCOC[C@H]4C)nc23)[nH]n1 [Example 81, (R)-1-(3-(3-methyl-1H-pyrazol-5-yl)-5-(3-methylmorpholino)isothiazolo[4,5-b]pyridin-7-yl)cyclohexane-1-carbonitrile] | 10 nM | < 100 nM |
| C[C@@H]1COCCN1c1cc(C2(C#N)CCCCC2)c2snc(-c3ccn[nH]3)c2n1 [Example 58, (R)-1-(5-(3-methylmorpholino)-3-(1H-pyrazol-5-yl)isothiazolo[4,5-b]pyridin-7-yl)cyclohexane-1-carbonitrile] | < 1 nM | < 100 nM |
| C[C@@H]1COCCN1c1cc(-c2ccnn2C)n2ncc(-c3ccn[nH]3)c2n1 [Example 1, (R)-3-methyl-4-(7-(1-methyl-1H-pyrazol-5-yl)-3-(1H-pyrazol-5-yl)pyrazolo[1,5-a]pyrimidin-5-yl)morpholine] | 491 nM | < 100 nM |
| Cc1cc(-c2nc(Cl)c3c(-c4ccnn4C)cc(N4CCOC[C@H]4C)nn23)[nH]n1 [Example 62, (3R)-4-[5-chloro-4-(1-methyl-1H-pyrazol-5-yl)-7-(3-methyl-1H-pyrazol-5-yl)imidazo[1,5-b]pyridazin-2-yl]-3-methylmorpholine] | 14.6 nM | < 100 nM |
| Cc1cc(-c2nsc3c(C4(C#N)CC4)cc(N4CCOC[C@H]4C)nc23)[nH]n1 [Example 52, (R)-1-(3-(3-methyl-1H-pyrazol-5-yl)-5-(3-methylmorpholino)isothiazolo [4,5-b]pyridin-7-yl)cyclopropane-1-carbonitrile] | 17.7 nM | < 100 nM |
| C[C@@H]1COCCN1c1cc(C2(C(N)=O)CCCCC2)c2snc(-c3ccn[nH]3)c2n1 [Example 89, 1-{5-[(3R)-3-methylmorpholin-4-yl]-3-(1H-pyrazol-5-yl)-[1,2]thiazolo[4,5-b]pyridin-7-yl}cyclohexane-1-carboxamide] | < 1 nM | < 100 nM |
| Cc1cc(-c2cnn3c(-c4ccnn4C)cc(N4CCOC[C@H]4C)nc23)[nH]n1 [Example 18, (R)-3-methyl-4-(7-(1-methyl-1H-pyrazol-5-yl)-3-(3-methyl-1H-pyrazol-5-yl)pyrazolo[1,5-a]pyrimidin-5-yl)morpholine] | 384 nM | < 100 nM |
| C[C@@H]1COCCN1c1cc(C2(S(C)(=O)=O)CC2)c2ncc(-c3ccn[nH]3)n2n1 [Example 22, (R)-3-methyl-4-(8-(1-(methylsulfonyl)cyclopropyl)-3-(1H-pyrazol-5-yl)imidazo[1,2-b]pyridazin-6-yl)morpholine] | 622 nM | < 100 nM |
| C[C@@H]1COCCN1c1cc(C2(C#N)CCCC2)c2snc(-c3ccn[nH]3)c2n1 [Example 57, (R)-1-(5-(3-methylmorpholino)-3-(1H-pyrazol-5-yl)isothiazolo[4,5-b]pyridin-7-yl)cyclopentane-1-carbonitrile] | 2.5 nM | < 100 nM |
| C[C@@H]1COCCN1c1cc(-c2ccnn2C)c2cnc(-c3ccn[nH]3)n2n1 [Example 27, (R)-3-methyl-4-(4-(1-methyl-1H-pyrazol-5-yl)-7-(1H-pyrazol-5-yl)imidazo[1,5-b]pyridazin-2-yl)morpholine] | 67 nM | < 100 nM |
